Consider two compounds from article PMC8755562 (European Journal of Medicinal Chemistry, 2022).

The target in this assay is recombinant human (rh)ACE2 (Homo sapiens, UniProt Q9BYF1). Nature of the assay: fluorogenic exopeptidase assay. The assay is classed as biochemical.

SMILES strings stand for the structures.

Sequence of recombinant human (rh)ACE2 (Q9BYF1 18-740 limits assumed): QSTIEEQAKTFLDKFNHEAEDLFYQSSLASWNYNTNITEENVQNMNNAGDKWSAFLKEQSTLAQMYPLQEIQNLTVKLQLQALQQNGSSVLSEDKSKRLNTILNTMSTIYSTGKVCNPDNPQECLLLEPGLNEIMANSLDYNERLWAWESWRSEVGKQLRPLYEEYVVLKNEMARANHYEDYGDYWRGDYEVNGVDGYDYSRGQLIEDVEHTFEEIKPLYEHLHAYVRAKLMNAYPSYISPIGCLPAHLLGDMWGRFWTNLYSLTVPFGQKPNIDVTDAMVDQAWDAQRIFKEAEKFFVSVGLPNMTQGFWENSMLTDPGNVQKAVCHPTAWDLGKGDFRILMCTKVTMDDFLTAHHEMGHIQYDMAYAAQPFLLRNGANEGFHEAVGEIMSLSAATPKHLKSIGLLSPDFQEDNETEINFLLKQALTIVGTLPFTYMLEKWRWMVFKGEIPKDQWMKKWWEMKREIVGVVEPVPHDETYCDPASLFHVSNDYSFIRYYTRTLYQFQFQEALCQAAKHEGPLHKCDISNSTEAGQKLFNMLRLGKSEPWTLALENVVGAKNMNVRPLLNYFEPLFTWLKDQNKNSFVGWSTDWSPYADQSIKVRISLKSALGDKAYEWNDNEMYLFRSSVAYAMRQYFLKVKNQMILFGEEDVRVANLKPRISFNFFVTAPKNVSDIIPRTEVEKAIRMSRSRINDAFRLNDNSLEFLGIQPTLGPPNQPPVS

For the compound `CC(C)C[C@H](N[C@@H](Cc1cncn1Cc1ccc(N)cc1)C(=O)O)C(=O)O` [compound 1, (S)-2-(((S)-2-(1-(4-aminobenzyl)-1H-imidazol-5-yl)-1-carboxyethyl)amino)-4-methylpentanoic acid], the IC50 was 11.3 nM. Then `CC(C)C[C@H](N[C@@H](Cc1cncn1Cc1cc(Cl)cc(Cl)c1)C(=O)O)C(=O)O` [MLN-4760], with 29.7 nM.

Usually IC50 stands for the concentration that gives 50% inhibition.
